According to US8093278B2, “Substituted indoles” (AstraZeneca AB, priority 2002, dated 2012):
Counter-ions that a name gives are not always drawn.

Experiments:
[1] = biological target: T1, rhCRTh2 (Homo sapiens, UniProt Q9Y5Y4); assay: Ligand Binding Assay ([3H]PGD2 SPA, HEK cell membranes); conditions: [3H]PGD2 displacement, HEK membranes expressing rhCRTh2/Gα16, SPA beads, 2 hours room temperature
T1 construct: expressed in transfected cells; host or cells: HEK cells (membrane preparation)
T1 sequence (Q9Y5Y4 1-395): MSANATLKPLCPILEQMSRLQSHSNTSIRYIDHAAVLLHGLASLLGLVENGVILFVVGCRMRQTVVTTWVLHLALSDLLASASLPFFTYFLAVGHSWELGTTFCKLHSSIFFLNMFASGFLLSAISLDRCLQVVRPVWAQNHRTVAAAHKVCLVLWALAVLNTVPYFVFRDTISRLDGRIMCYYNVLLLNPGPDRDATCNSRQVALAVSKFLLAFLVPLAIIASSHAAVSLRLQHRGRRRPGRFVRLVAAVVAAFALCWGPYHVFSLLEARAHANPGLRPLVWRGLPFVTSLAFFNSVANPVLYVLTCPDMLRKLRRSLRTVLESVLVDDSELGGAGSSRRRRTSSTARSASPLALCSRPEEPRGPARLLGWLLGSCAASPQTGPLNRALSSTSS
Procedure: • 1) Gassmann, Berge, T. J., Gilbert, D. P., Berkeley, W. C., JACS, 96, 5495-5508, (1974). Pharmacological Data Ligand Binding Assay
[^3H]PGD2 was purchased from Perkin Elmer Life Sciences with a specific activity of 100-210 Ci/mmol. All other chemicals were of analytical grade.
HEK cells expressing rhCRTh2/Gα16 were routinely maintained in DMEM containing 10% Foetal Bovine Serum (HyClone), 1 mg/ml geneticin, 2 mM L-glutamine and 1% non-essential amino acids. For the preparation of membranes, the adherent transfected HEK cells were grown to confluence in two layer tissue culture factories (Fisher, catalogue number TKT-170-070E). Maximal levels of receptor expression were induced by addition of […] sodium butyrate for the last 18 hours of culture. The adherent cells were washed once with phosphate buffered saline (PBS, 50 ml per cell factory) and detached by the addition of 50 ml per cell factory of ice-cold membrane homogenisation buffer [20 mM HEPES (pH 7.4), 0.1 mM dithiothreitol, 1 mM EDTA, 0.1 mM phenyl methyl sulphonyl fluoride and 100 μg/ml bacitracin]. […] The final pellet was re-suspended in 4 ml of membrane homogenisation buffer per cell factory used and the protein content determined. […]
All assays were performed in Corning clear bottomed, white 96-well NBS plates (Fisher). […] (The optimum coating concentrations were determined for each batch of membranes) The beads were pelleted by centrifugation (800×g for 7 minutes at 4° C.), washed once with assay buffer (50 mM HEPES pH 7.4 containing 5 mM magnesium chloride) and finally re-suspended in assay buffer at a bead concentration of 10 mg/ml.
Each assay contained 20 μl of 6.25 nM [^3H]PGD2, 20 μl membrane saturated SPA beads both in assay buffer and 10 μl of compound solution or 13,14-dihydro-15-keto prostaglandin D2 (DK-PGD2, for determination of non-specific binding, Cayman chemical company). […] The assay plate was incubated at room temperature for 2 hours and counted on a Wallac Microbeta liquid scintillation counter (1 minute per well).

Cc1c(-c2ccnc3cc(Cl)ccc23)c2cc(NS(C)(=O)=O)ccc2n1CC(=O)O [Example 46, 3-(7-Chloro-4-quinolinyl)-2-methyl-5-[(methylsulfonyl)amino]-1H-indole-1-acetic acid]
melting point: 195 to 198 °C

Cc1ccc2c(c1)c(-c1ccnc3ccccc13)c(C)n2CC(=O)O [Example 14, 2,5-dimethyl-3-(4-quinolinyl)-1H-indole-1-acetic acid, sodium salt]
IC50 [1]: 20 nM

O=C(O)Cn1c(CO)c(-c2ccnc3cc(Cl)ccc23)c2cc(Cl)ccc21 [Example 55, 5-Chloro-3-(7-chloro-4-quinolinyl)-2-(hydroxymethyl)-1H-indole-1-acetic acid]
IC50 [1]: 53.7 nM

Cc1c(-c2nsc3ccccc23)c2cc(F)ccc2n1CC(=O)O [Example 36, 3-(1,2-benzisothiazol-3-yl)-5-fluoro-2-methyl-1H-indole-1-acetic acid]
IC50 [1]: 7.08 nM
